Data on 17 compounds can be found in US20090111778A1, “2-Keto-Oxazoles as Modulators of Fatty Acid Amide Hydrolase” (priority 2005, published 2009).

Assay [1] concerns the target T1, human FAAH (Homo sapiens, UniProt O00519).
T1 construct: expressed in transfected cells
T1 sequence (O00519 1-579): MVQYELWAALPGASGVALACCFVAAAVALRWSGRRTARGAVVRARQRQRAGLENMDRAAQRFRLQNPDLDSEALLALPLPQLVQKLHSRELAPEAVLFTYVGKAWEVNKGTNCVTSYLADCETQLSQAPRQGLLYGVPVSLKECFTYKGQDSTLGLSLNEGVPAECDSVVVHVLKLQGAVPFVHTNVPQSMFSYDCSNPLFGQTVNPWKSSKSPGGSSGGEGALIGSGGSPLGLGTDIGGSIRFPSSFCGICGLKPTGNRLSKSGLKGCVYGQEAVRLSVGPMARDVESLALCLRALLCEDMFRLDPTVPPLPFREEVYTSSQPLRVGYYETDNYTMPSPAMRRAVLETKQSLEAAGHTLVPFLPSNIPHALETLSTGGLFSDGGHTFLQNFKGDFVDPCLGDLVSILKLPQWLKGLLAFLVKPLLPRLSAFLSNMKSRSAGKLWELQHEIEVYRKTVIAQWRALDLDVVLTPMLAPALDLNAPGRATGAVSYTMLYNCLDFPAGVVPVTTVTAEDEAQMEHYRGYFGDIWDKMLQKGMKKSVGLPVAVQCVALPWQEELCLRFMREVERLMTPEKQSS
Description: Assay Method 1: FAAH assay, hydrolysis of 3H-anandamide by homogenate of SK-N-MC cells transfected with human FAAH. The following applies: human FAAH; T84 or transfected SK-N-MC cell homogenate; 3H-AEA tracer 80 nM; rt 1 h; pH 9; read-out: Assay 1 IC50. Format: biochemical. As for the experimental part: A. Transfection of Cells with Human FAAH
(§1) A 10-cm tissue culture dish with a confluent monolayer of SK-N-MC cells was split 2 days (d) prior to transfection. Using sterile technique, the media was removed and the cells were detached from the dish by the addition of trypsin. One fifth of the cells were then placed onto a new 10-cm dish. Cells were grown in a 37° C. incubator with 5% CO2 in Minimal Essential Media Eagle with 10% Fetal Bovine Serum. After 2 d, cells were approximately 80% confluent. These cells were removed from the dish with trypsin and pelleted in a clinical centrifuge. The pellet was re-suspended in 400 μL complete media and transferred to an electroporation cuvette with a 0.4 cm gap between the electrodes. Supercoiled human FAAH cDNA (1 μg) was added to the cells and mixed. The voltage for the electroporation was set at 0.25 kV, and the capacitance was set at 960 μF. After electroporation, the cells were diluted into complete media (10 mL) and plated onto four 10-cm dishes. Because of the variability in the efficiency of electroporation, four different concentrations of cells were plated. The ratios used were 1:20, 1:10, and 1:5, with the remainder of the cells being added to the fourth dish. The cells were allowed to recover for 24 h before adding the selection media (complete media with 600 μg/mL G418). After 10 d, dishes were analyzed for surviving colonies of cells. Dishes with well-isolated colonies were used. Cells from individual colonies were isolated and tested.
The assay mixture consisted of […] of the cell homogenate, 10 μL of the test compound, and 40 μL of anandamide [1-^3H-ethanolamine] (3H-AEA, Perkin-Elmer, 10.3 Ci/mmol), which was added last, for a final tracer concentration of 80 nM. The reaction mixture was incubated at rt for 1 h. During the incubation, 96-well Multiscreen filter plates (catalog number MAFCNOB50; Millipore, Bedford, Mass., USA) were loaded with 25 μL of activated charcoal (Multiscreen column loader, catalog number MACL09625, Millipore) and washed once with 100 μL of MeOH. Also during the incubation, 96-well DYNEX MicroLite plates (catalog number NL510410) were loaded with 100 μL of MicroScint40 (catalog number 6013641, Packard Bioscience, Meriden, Conn., USA). After the 1 h incubation, 60 μL of the reaction mixture were transferred to the charcoal plates, which were then assembled on top of the DYNEX plates using Centrifuge Alignment Frames (catalog number MACF09604, Millipore). The unbound labeled ethanolamine was centrifuged through to the bottom plate (5 min at 2000 rpm), which was preloaded with the scintillant, as described above. The plates were sealed and left at rt for 1 h before counting on a Hewlett Packard TopCount.

The target of assay [2] is T2, rat FAAH (Rattus norvegicus, UniProt P97612).
T2 construct: expressed in transfected cells
T2 sequence (P97612 1-579): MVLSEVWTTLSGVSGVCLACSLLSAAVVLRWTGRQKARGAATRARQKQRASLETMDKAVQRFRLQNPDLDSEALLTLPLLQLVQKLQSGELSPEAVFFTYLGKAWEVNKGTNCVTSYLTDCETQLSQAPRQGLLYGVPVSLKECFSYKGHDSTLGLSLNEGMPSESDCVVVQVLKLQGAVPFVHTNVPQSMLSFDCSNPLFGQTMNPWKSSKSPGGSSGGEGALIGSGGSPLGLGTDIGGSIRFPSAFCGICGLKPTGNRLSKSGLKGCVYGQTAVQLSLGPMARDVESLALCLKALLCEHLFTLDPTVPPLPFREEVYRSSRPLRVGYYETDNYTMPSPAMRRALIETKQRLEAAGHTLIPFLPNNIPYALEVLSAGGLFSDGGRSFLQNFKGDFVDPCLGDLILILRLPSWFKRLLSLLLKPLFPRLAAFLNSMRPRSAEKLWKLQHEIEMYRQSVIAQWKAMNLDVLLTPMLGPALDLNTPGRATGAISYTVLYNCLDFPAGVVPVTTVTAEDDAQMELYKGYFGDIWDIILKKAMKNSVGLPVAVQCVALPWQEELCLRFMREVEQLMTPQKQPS
Description: Assay Method 2: FAAH assay, hydrolysis of 3H-anandamide by homogenate of SK-N-MC cells transfected with rat FAAH. Format: biochemical. The settings on record: T84 or transfected SK-N-MC cell homogenate, 3H-AEA tracer 80 nM, rt 1 h, pH 9. The method, then: as §1, with “A. Transfection of Cells with Rat FAAH A 10-cm” for “A 10-cm”, “electrodes. Supercoiled rat FAAH cDNA” for “electrodes. Supercoiled human FAAH cDNA”, “and tested. […] B. FAAH Assay […] The reaction mixture was incubated at rt for 1 h. During the incubation, 96-well Multiscreen filter plates (catalog number MAFCNOB50; Millipore, Bedford, Mass., USA) were loaded with 25 μL of activated charcoal (Multiscreen column loader, catalog number MACL09625, Millipore) and washed once with 100 μL of MeOH. Also during the incubation, 96-well DYNEX MicroLite plates (catalog number NL510410) were loaded with 100 μL of MicroScint40 (catalog number 6013641, Packard Bioscience, Meriden, Conn., USA). After the 1 h incubation, 60 μL of the reaction mixture were transferred to the charcoal plates, which were then assembled on top of the DYNEX plates using Centrifuge Alignment Frames (catalog number MACF09604, Millipore). The unbound labeled ethanolamine was centrifuged through to the bottom plate (5 min at 2000 rpm), which was preloaded with the scintillant, as described above. The plates were sealed and left at rt for 1 h before counting on a Hewlett Packard TopCount.” for “and tested.”

Where a name gives a salt, the structure may show the parent alone.

As to `O=C(CCCC1CCN(C(=O)COCc2ccccc2)CC1)c1ncco1` [Example 34, 4-[1-(2-Benzyloxy-acetyl)-piperidin-4-yl]-1-oxazol-2-yl-butan-1-one], the IC50 is 240 nM in assay [1] and 250 nM in assay [2].

`O=C(CCCC1CCN(Cc2cc(F)cc(F)c2F)CC1)c1ncco1` [Example 124, 1-Oxazol-2-yl-4-[1-(2,3,5-trifluoro-benzyl)-piperidin-4-yl]-butan-1-one]: the IC50 worked out at 30 nM in assay [1] and 450 nM in assay [2].

`O=C(CCCC1CCN(S(=O)(=O)c2ccc(Cl)c(Cl)c2)CC1)c1ncco1` [Example 62, 4-[1-(3,4-Dichloro-benzenesulfonyl)-piperidin-4-yl]-1-oxazol-2-yl-butan-1-one]: the IC50 in assay [1] is 14 nM; in assay [2], 110 nM.

In the case of `O=C(CCCC1CCN(Cc2cc(F)ccc2F)CC1)c1ncco1` [Example 113, 4-[1-(2,5-Difluoro-benzyl)-piperidin-4-yl]-1-oxazol-2-yl-butan-1-one], the results for the IC50 in assay [1] and in assay [2] were 28 nM and 318 nM, respectively.

Consider `O=C(CCCC1CCN(Cc2ccc(-c3ccccc3)cc2)CC1)c1ncco1` [Example 73, 4-(1-Biphenyl-4-ylmethyl-piperidin-4-yl)-1-oxazol-2-yl-butan-1-one], for which the IC50 in assay [1] was found to be 24 nM; in assay [2], 45 nM.

Consider `O=C(CCCC1CCN(Cc2ccc(-c3cccs3)nc2)CC1)c1ncco1` [Example 110, 1-Oxazol-2-yl-4-[1-(6-thiophen-2-yl-pyridin-3-ylmethyl)-piperidin-4-yl]-butan-1-one], for which the IC50 came to 9 nM in assay [1] and 141 nM in assay [2].

On to `O=C(O)c1cnc(C(=O)CCCC2CCN(Cc3cccc(-c4ccccc4)c3)CC2)o1` [Example 143, 2-[4-(1-Biphenyl-3-ylmethyl-piperidin-4-yl)-butyryl]-oxazole-5-carboxylic acid trifluoroacetic acid salt], for which the IC50 in assay [1] came out at 14 nM; in assay [2] it was 3 nM.

On to `O=C(CCCC1CCN(Cc2ccc(N3CCCCC3)cc2)CC1)c1ncco1` [Example 103, 1-Oxazol-2-yl-4-[1-(4-piperidin-1-yl-benzyl)-piperidin-4-yl]-butan-1-one], for which the results for the IC50 in assay [1] and in assay [2] were 108 nM and 250 nM, respectively.

For the compound `COCCOC(=O)N1CCC(CCCC(=O)c2ncco2)CC1` [Example 65, 4-(4-Oxazol-2-yl-4-oxo-butyl)-piperidine-1-carboxylic acid 2-methoxy-ethyl ester], the IC50 was determined as 69 nM in assay [1] and 240 nM in assay [2].

On to `O=C(CCCC1CCN(Cc2ccc(Cl)c(Cl)c2)CC1)c1ncco1` [Example 12, 4-[1-(3,4-Dichloro-benzyl)-piperidin-4-yl]-1-oxazol-2-yl-butan-1-one], for which the values for the IC50 in assay [1] and in assay [2] were 50 nM and 70 nM, respectively.

As to `O=C(CCCC1CCN(Cc2ccc(N3CCCC3)cc2)CC1)c1ncco1` [Example 102, 1-oxazol-2-yl-4-[1-(4-pyrrolidin-1-yl-benzyl)-piperidin-4-yl]-butan-1-one], the values for the IC50 in assay [1] and in assay [2] were 530 nM and 3000 nM, respectively.

Turning to `CC(C)Cc1ccc(CN2CCC(CCCC(=O)c3ncco3)CC2)cc1` [Example 82, 4-[1-(4-Isobutyl-benzyl)-piperidin-4-yl]-1-oxazol-2-yl-butan-1-one], the concentration for half-maximal inhibition (IC50) in assay [1] was 23 nM; in assay [2], 49 nM.

With `CC(C)(C)Oc1ccc(CN2CCC(CCCC(=O)c3ncco3)CC2)cc1` [Example 24, 4-[1-(4-tert-Butoxy-benzyl)-piperidin-4-yl]-1-oxazol-2-yl-butan-1-one], the IC50 amounted to 32 nM in assay [1] and 18 nM in assay [2].

Regarding `O=C(CCCC1CCN(Cc2ccc(-c3ccccc3)c(F)c2)CC1)c1ncco1` [Example 138, 4-[1-(2-Fluoro-biphenyl-4-ylmethyl)-piperidin-4-yl]-1-oxazol-2-yl-butan-1-one], the IC50 in assay [1] is 71 nM; in assay [2] it was 113 nM.

Take `Cc1cccc(CN2CCC(CCCC(=O)c3ncco3)CC2)c1C` [Example 94, 4-[1-(2,3-Dimethyl-benzyl)-piperidin-4-yl]-1-oxazol-2-yl-butan-1-one]: the IC50 in assay [1] is 400 nM; in assay [2] it was 2100 nM.

Turning to `CCN(CC)c1ccc(CN2CCC(CCCC(=O)c3ncco3)CC2)cc1` [Example 89, 4-[1-(4-Diethylamino-benzyl)-piperidin-4-yl]-1-oxazol-2-yl-butan-1-one], the IC50 came out at 130 nM in assay [1] and 700 nM in assay [2].

Consider `CC(C)CC(=O)N1CCC(CCCC(=O)c2ncco2)CC1` [Example 26, 3-Methyl-1-[4-(4-oxazol-2-yl-4-oxo-butyl)-piperidin-1-yl]-butan-1-one], for which the IC50 was 400 nM in assay [1] and 900 nM in assay [2].

One may read the IC50 as the concentration needed to halve the response being measured.
